Measured values reported in article PMC9917406, “Synthesis, Biological and In Silico Studies of Griseofulvin and Usnic Acid Sulfonamide Derivatives as Fungal, Bacterial and Human Carbonic Anhydrase Inhibitors” (International Journal of Molecular Sciences, 2023).
Where two headings read alike, the source gives them in different places.

Tests used:
Format in all cases: biochemical
PgiCAβ = target: T1, PgiCAβ (Porphyromonas gingivalis, UniProt B2RL07); test: stopped-flow CO2 hydrase assay, PgiCAβ; details: mean from 3 different assays, errors ±5–10%
T1 sequence (B2RL07 19-242): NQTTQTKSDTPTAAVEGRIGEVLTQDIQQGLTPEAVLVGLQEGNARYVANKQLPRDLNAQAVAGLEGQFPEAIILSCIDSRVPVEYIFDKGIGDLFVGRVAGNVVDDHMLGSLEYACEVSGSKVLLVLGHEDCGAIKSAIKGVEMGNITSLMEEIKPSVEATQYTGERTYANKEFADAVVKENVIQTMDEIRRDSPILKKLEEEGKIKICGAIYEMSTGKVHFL

hCA II = hCA II (Homo sapiens, UniProt P00918); test: stopped-flow CO2 hydrase assay, hCA II; details: for Ki: mean from 3 different assays, errors ±5–10%; for selectivity index (SI) towards hCA I: hCA II inhibition relative to hCA I; for selectivity index (SI) towards hCA IX: hCA II inhibition relative to hCA IX
PgiCAγ = target: T2, PgiCAγ (Porphyromonas gingivalis, UniProt Q7MV79); test: stopped-flow CO2 hydrase assay, PgiCAγ; details: for Ki: mean from 3 different assays, errors ±5–10%
T2 sequence (Q7MV79 1-192): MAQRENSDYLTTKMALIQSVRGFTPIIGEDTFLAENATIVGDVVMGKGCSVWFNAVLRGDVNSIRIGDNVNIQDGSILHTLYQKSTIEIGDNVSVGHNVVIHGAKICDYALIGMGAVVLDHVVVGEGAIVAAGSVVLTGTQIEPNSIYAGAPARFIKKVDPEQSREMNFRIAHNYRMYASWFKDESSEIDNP

CpsCAγ = CpsCAγ (Colwellia psychrerythraea, UniProt Q48AV3); test: biochemical
SmuCA = target: T3, SmuCA (Streptococcus mutans, UniProt Q8DVY1); test: stopped-flow CO2 hydrase assay, SmuCA; details: for Ki: mean from 3 different assays, errors ±5–10%
T3 sequence (Q8DVY1 1-166): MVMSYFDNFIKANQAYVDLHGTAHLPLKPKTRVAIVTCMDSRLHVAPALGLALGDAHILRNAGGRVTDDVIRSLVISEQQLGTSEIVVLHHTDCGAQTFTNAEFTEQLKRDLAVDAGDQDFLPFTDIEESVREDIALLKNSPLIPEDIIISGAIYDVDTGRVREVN

BpsCAγ = BpsCAγ (Burkholderia pseudomallei, UniProt Q63SQ4); details: read-out: KI BpsCAγ
hCA I = hCA I (Homo sapiens, UniProt P00915); test: stopped-flow CO2 hydrase assay, hCA I; details: mean from 3 different assays, errors ±5–10%
MgCA = target: T4, MgCA (Malassezia globosa, UniProt A8Q1N3); test: stopped-flow CO2 hydrase assay, MgCA; details: mean from 3 different assays, errors ±5–10%
T4 sequence (A8Q1N3 1-241): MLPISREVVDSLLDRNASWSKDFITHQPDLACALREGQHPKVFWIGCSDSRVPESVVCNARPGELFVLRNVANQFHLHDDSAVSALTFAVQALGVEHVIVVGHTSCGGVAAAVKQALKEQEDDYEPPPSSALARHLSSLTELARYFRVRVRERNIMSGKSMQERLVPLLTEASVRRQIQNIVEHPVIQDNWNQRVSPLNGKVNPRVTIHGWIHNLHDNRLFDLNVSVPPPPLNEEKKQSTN

hCA IX = hCA IX (Homo sapiens, UniProt Q16790); test: stopped-flow CO2 hydrase assay, hCA IX; details: mean from 3 different assays, errors ±5–10%; read-out: KI hCAIX
[1] = mean from 3 different assays, errors ±5–10%, read-out: KI CpsCAγ

Chain of BpsCAγ (Q63SQ4 1-174): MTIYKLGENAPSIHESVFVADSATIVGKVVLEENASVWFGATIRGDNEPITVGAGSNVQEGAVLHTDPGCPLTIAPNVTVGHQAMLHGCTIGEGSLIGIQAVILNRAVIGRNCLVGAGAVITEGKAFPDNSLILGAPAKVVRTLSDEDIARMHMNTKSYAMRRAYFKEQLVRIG
Chain of CpsCAγ (Q48AV3 entry or part of it): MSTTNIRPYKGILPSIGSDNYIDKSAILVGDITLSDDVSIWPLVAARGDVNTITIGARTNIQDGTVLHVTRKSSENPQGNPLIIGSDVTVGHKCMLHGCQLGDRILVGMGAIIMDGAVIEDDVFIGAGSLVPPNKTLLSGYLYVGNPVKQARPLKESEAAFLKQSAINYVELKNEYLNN
Chain of hCA I (P00915 whole entry): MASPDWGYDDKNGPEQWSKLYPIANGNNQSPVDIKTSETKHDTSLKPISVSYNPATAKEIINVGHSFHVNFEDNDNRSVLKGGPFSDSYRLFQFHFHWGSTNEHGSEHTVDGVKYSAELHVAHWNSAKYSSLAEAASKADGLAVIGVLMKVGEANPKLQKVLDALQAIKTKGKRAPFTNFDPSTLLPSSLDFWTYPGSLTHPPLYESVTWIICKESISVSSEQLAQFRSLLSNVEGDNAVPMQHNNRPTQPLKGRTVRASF

| Structure (SMILES) | Ki (PgiCAβ) | Ki (hCA II) | Ki (PgiCAγ) | Ki (CpsCAγ) | SI towards all other bacterial strains (SmuCA; S. mutans CA inhibition relative to other bacterial CAs) | Ki (SmuCA) | Ki (BpsCAγ) | Ki (hCA I) | Ki (MgCA) | Ki (hCA IX) | selectivity index (SI) towards hCA I (hCA II) | selectivity index (SI) towards hCA IX (hCA II) | Ki (CpsCAγ; [1]) | SI towards BpsCAγ (CpsCAγ; CpsCAγ inhibition relative to BpsCAγ) | SI towards PgiCAγ (CpsCAγ; CpsCAγ inhibition relative to PgiCAγ) | SI towards S. mutans (CpsCAγ; CpsCAγ inhibition relative to S. mutans CA) | SI towards PgiCAβ (PgiCAγ; PgiCAγ inhibition relative to PgiCAβ) | fold more active than acetazolamide (PgiCAγ; against PgiCAγ) |
| --- | --- | --- | --- | --- | --- | --- | --- | --- | --- | --- | --- | --- | --- | --- | --- | --- | --- | --- |
| COc1cc(OC)c2c(c1Cl)OC1(C(=O)C=C(Nc3ccc(S(N)(=O)=O)cc3)CC1C)C2=O [Compound 1b, 4-(((2S,6′R)-7-chloro-4,6-dimethoxy-6′-methyl-2′,3-dioxo-3H-spiro[benzofuran-2,1′-cyclohexan]-3′-en-4′-yl)amino)benzenesulfonamide] | 819 nM | 64.4 nM | 820 nM | 939 nM | 3 | 294 nM | 945 nM | 234 nM | 476 nM | 203 nM |  |  |  |  |  |  |  |  |
| CC(=O)c1c(O)c(C)c(O)c2c1OC1=CC(=O)C(=C(C)Nc3ccc(S(N)(=O)=O)cc3O)C(=O)[C@@]12C [Compound 4a, (R)-4-((1-(6-acetyl-7,9-dihydroxy-8,9b-dimethyl-1,3-dioxo-3,9b-dihydrodibenzo[b,d]furan-2(1H)-ylidene)ethyl)amino)-3-hydroxybenzenesulfonamide] | 888 nM | 8.4 nM | 897 nM | 723 nM |  | 841 nM | 473 nM | 370 nM | 3430 nM | 66.9 nM | 43.9 | 7.96 |  |  |  |  |  |  |
| COc1cc(OC)c2c(c1Cl)OC1(C(=O)C=C(NCc3ccc(S(N)(=O)=O)cc3)CC1C)C2=O [Compound 1c, 4-((((2S,6′R)-7-chloro-4,6-dimethoxy-6′-methyl-2′,3-dioxo-3H-spiro[benzofuran-2,1′-cyclohexan]-3′-en-4′-yl)amino)methyl)benzenesulfonamide] | 896 nM | 29.1 nM | 661 nM | 900 nM |  | 4000 nM | 833 nM | 74.6 nM | 568 nM | 102 nM |  |  |  |  |  |  |  |  |
| COc1cc(C(CC(=O)NCCS(N)(=O)=O)C2C(=O)C[C@@H](C)[C@]3(Oc4c(Cl)c(OC)cc(OC)c4C3=O)C2=O)ccc1O (stereo partly drawn) [Compound 1g] | 5590 nM | 4050 nM | 2220 nM |  |  | 1220 nM | 2330 nM | 2990 nM | 3150 nM | 710 nM |  |  | 301 nM |  |  |  |  |  |
| COc1cc(OC)c2c(c1Cl)O[C@]1(C2=O)C(=O)C(C(CC(=O)NCC(=O)Nc2ccc(S(N)(=O)=O)cc2)c2ccc(SC)cc2)C(=O)C[C@H]1C (stereo partly drawn) [Compound 1j, 3-((2S,2′R)-7-chloro-4,6-dimethoxy-2′-methyl-3,4′,6′-trioxo-3H-spiro[benzofuran-2,1′-cyclohexan]-5′-yl)-3-(4-(methylthio)phenyl)-N-(2-oxo-2-((4-sulfamoylphenyl)amino)ethyl)propenamide] | 3000 nM | 5.7 nM | 2320 nM |  |  | 1230 nM | 710 nM | 27.7 nM | 2050 nM | 22.5 nM |  |  | 177 nM | 4 | 13 | 6.9 |  |  |
| COc1cc(OC)c2c(c1Cl)OC1(C(=O)C=C(Nc3ccc(S(N)(=O)=O)cc3O)CC1C)C2=O [Compound 1d, 4-(((2S,6′R)-7-chloro-4,6-dimethoxy-6′-methyl-2′,3-dioxo-3H-spiro[benzofuran-2,1′-cyclohexan]-3′-en-4′-yl)amino)-3-hydroxybenzenesulfonamide] | 1280 nM | 4.9 nM | 584 nM | 591 nM |  | 897 nM | 878 nM | 28.8 nM | 1590 nM | 29.4 nM | 5.88 | 6.00 |  |  |  |  |  |  |
| COc1cc(OC)c2c(c1Cl)O[C@@]1(C(=O)/C(=C\NCc3ccc(S(N)(=O)=O)cc3)C(=O)C[C@H]1C)C2=O [Compound 1e] | 940 nM | 165 nM | 1270 nM | 220 nM |  | 1640 nM | 1060 nM | 320 nM | 1830 nM | 29.2 nM |  |  |  |  |  |  |  |  |
| CC(=O)c1c(O)c(C)c(O)c2c1OC1=CC(=O)C(=C(C)Nc3cc(S(N)(=O)=O)ccc3O)C(=O)[C@@]12C [Compound 4b, (R)-3-((1-(6-acetyl-7,9-dihydroxy-8,9b-dimethyl-1,3-dioxo-3,9b-dihydrodibenzo[b,d]furan-2(1H)-ylidene)ethyl)amino)-4-hydroxybenzenesulfonamide] | 766 nM | 755 nM | 1840 nM | 809 nM |  | 1700 nM | 1000 nM |  | 2500 nM | 305 nM |  |  |  |  |  |  |  |  |
| COc1cc(OC)c2c(c1Cl)OC1(C(=O)C=C(NCCS(N)(=O)=O)CC1C)C2=O [Compound 1a, 2-(((2S,6′R)-7-chloro-4,6-dimethoxy-6′-methyl-2′,3-dioxo-3H-spiro[benzofuran-2,1′-cyclohexan]-3′-en-4′-yl)amino)ethane-1-sulfonamide] | 779 nM | 653 nM | 92.1 nM | 3150 nM |  | 1630 nM | 448 nM | 562 nM | 544 nM | 31.2 nM |  |  |  |  |  |  | 8.5 | 3.5 fold |
| COc1cc(OC)c2c(c1Cl)O[C@@]1(C(=O)C(=CNCCc3ccc(S(N)(=O)=O)cc3)C(=O)C[C@H]1C)C2=O [Compound 1f, 4-(2-((((2R,2′R)-7-chloro-4,6-dimethoxy-2′-methyl-3,4′,6′-trioxo-3H-spiro[benzofuran-2,1′-cyclohexan]-5′-ylidene)methyl)amino)ethyl)benzenesulfonamide] | 8360 nM | 70.8 nM | 602 nM | 726 nM |  | 2470 nM | 2280 nM | 348 nM | 4000 nM | 30.6 nM |  |  |  |  |  |  |  |  |
| COc1cc(OC)c2c(c1Cl)O[C@]1(C2=O)C(=O)C(C(CC(=O)NCCc2ccc(S(N)(=O)=O)cc2)c2ccc(SC)cc2)C(=O)C[C@H]1C (stereo partly drawn) [Compound 1i, 3-((2S,2′R)-7-chloro-4,6-dimethoxy-2′-methyl-3,4′,6′-trioxo-3H-spiro[benzofuran-2,1′-cyclohexan]-5′-yl)-3-(4-(methylthio)phenyl)-N-(4-sulfamoylphenethyl)propenamide] | 506 nM | 8.1 nM | 854 nM |  |  | 889 nM | 1040 nM | 15.3 nM | 1910 nM | 23.3 nM |  |  | 804 nM |  |  |  |  |  |
| COc1cc(OC)c2c(c1Cl)O[C@]1(C2=O)C(=O)C(C(CC(=O)NCc2ccc(S(N)(=O)=O)cc2)c2ccc(SC)cc2)C(=O)C[C@H]1C (stereo partly drawn) [Compound 1h] | 5750 nM | 7.5 nM | 853 nM |  |  | 580 nM | 1400 nM | 41.1 nM | 4350 nM | 73.7 nM |  |  | 625 nM |  |  |  |  |  |
